Results on 4 molecules are retold here after patent US20220177538A1, “CO-AGONISTS AT GLP-1 AND GIP RECEPTORS SUITABLE FOR ORAL DELIVERY” (Novo Nordisk A/S, priority 2020, published 2022).

Like-named read-outs stand apart in the source and are kept apart here. Starred links: 1 amine or outer side, 2 acyl side, 3 side chain; linkers in the order of their positions; H or OH if unused. Non-standard residues stand in square brackets, D forms with d. Residues, ends and D or L forms follow the SMILES beside them. Groups on a side chain read outwards from the residue. *: point of attachment. C18 diacid = O=C(O)CCCCCCCCCCCCCCCCC(=O)*; C16 diacid = O=C(O)CCCCCCCCCCCCCCC(=O)*; γGlu = O=C(O)[C@H](CCC(=O)[*:2])N[*:1]; εLys = N[C@@H](CCCCN[*:1])C(=O)[*:2]; AEEA = NCCOCCOCC(=O)O; Aib = CC(C)(N)C(=O)O

A short description of data set [1]: Pharmacokinetic study in dogs after oral dosing of tablets with SNAC. It is filed as in vivo, Beagle dogs. Conditions: dog, in vivo, po. How it is done: The purpose of this example is to determine the half-life and plasma exposure in vivo of the compounds of the present invention after p.o. administration to beagle dogs, i.e. the terminal half-life and concentration of test substance that reaches circulation with time. This is done in a pharmacokinetic (PK) study, where these parameters of the compound in question are determined. By terminal half-life is generally meant the period of time it takes to halve a certain plasma concentration, measured after the initial distribution phase.
The amount of SNAC in the tablet composition was 100-300 mg, the amount of magnesium stearate in the tablet composition was 7.7 mg, and the target amount of each test substance in the tablet composition was 3-4 mg.
Male beagle dogs, 1-7 years of age and weighing 9-17 kg during the study period, were included in the study. The dogs were dosed in a fasting state. The dogs were group housed in pens (12 hours light: 12 hours dark), and fed individually and restrictedly once daily with Royal Canin Medium Adult dog food (Royal Canin Products, China Branch, or Brogaarden A/S, Denmark). The dogs were used for repeated PK studies with a suitable wash-out period between successive dosing. An appropriate acclimatization period was given prior to initiation of the first PK study. All handling, dosing, and blood sampling of the animals were performed by trained and skilled staff. Before the studies, the dogs were fasted overnight and from 0 to 4 hours after dosing. The dogs were restricted to water 1 hour before dosing until 4 hours after dosing, but otherwise had ad libitum access to water during the whole period.
The compositions were administered by a single oral dosing to the dogs in groups of 6-8 dogs. […] The mouth was then closed, and 10 mL of tap water was given by syringe or gavage to facilitate swallowing of the tablet.
One blood sample was drawn before dosing, and additional samples were drawn at predefined time points after dosing for up to 240 hours, such as up to 10 hours, to adequately cover the full plasma concentration-time absorption profile of the test substance. For each blood sample time point, approximately 0.8 mL of whole blood was collected in a 1.5 mL EDTA-coated tube, which was gently turned to mix the sample with EDTA. Blood samples were collected in EDTA buffer (8 mM) and then centrifuged at 4° C. 2000 g for 10 minutes. Plasma was pipetted into Micronic tubes on dry ice, and kept at −20° C. or lower until analysis. Blood samples were taken as appropriate, for example from a venflon in the cephalic vein in the front leg for the first 2 hours and then with syringe from the jugular vein for the rest of the time points. The first few drops were allowed to drain from the venflon to avoid heparin saline from the venflon in the sample.
All blood samples were collected into test tubes containing EDTA for stabilisation and kept on ice until centrifugation. Plasma was separated from whole blood by centrifugation and the plasma was stored at −20° C. or lower until analysis.
The plasma was analysed for test substance using LC-MS (Liquid Chromatography-Mass Spectrometry) as known to the person skilled in the art. […] RP-HPLC separation was achieved using a linear gradient of 1:1 acetonitrile/methanol in 1% aqueous formic acid using either: a Phenomenex Onyx Monolithic C18 column (50×2.0 mm) and a flow rate of 0.8 mL/min at 30° C.; or an Agilent Poroshell 120 SB-C18 column (50×2.1 mm, 2.7 μm) at a flow rate of 0.4 mL/min at 60° C. The mass spectrometer was operated in either positive ionization SIM mode or positive ionization PRM mode.
For each individual animal, a plasma concentration-time profile was analysed by a non-compartmental model in Pharsight Phoenix WinNonLin ver.

Data set [2] deals with T1, human GIP receptor (Homo sapiens, UniProt P48546).
T1 construct: expressed in transfected cells; host or cells: BHK (parent line BHKTS13), clone BHK CRE luc2P hGIPR
T1 sequence (P48546 22-466): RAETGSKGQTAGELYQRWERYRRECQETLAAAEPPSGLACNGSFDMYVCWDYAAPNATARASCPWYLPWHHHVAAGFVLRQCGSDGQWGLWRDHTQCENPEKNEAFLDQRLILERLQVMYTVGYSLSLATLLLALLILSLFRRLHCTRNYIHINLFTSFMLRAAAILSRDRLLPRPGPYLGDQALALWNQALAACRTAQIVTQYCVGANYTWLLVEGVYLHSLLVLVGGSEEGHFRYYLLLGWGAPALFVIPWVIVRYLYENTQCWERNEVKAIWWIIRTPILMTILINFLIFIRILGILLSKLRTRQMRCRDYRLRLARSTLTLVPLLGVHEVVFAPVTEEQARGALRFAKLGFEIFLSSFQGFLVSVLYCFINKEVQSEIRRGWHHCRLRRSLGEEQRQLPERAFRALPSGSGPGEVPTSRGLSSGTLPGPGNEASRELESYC
The experiment in a line: In vitro functional potency, CRE luciferase reporter, whole BHK cells (hGIPR). Format: cell-based. Conditions: BHK CRE luc2P hGIPR cells. A digest of the protocol:
(§1)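 BHK CRE luc2P cells stably expressing hGIPR or hGLP-1R were seeded at 5000 cells/well overnight. They were treated 3 h at 37° C with a 12-point, 3.5-fold compound series in buffer with or without HSA, and luciferase luminescence was read. Values come from log(agonist)-response regression, averaging at least two replicates.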
(A reporter such as luciferase makes a cellular process visible.)

Data set [3] has as its target human GLP-1 receptor (Homo sapiens, UniProt P43220). The experiment in a line: In vitro functional potency, CRE luciferase reporter, whole BHK cells (hGLP-1R). It is filed as cell-based. Set-up: expressed in transfected cells; host or cells: BHK (parent line BHKTS13), clone BHK CRE luc2P hGLP-1R. The conditions noted are these: BHK CRE luc2P hGLP-1R cells. A digest of the protocol: as §1

human GLP-1 receptor, sequence (P43220 24-463): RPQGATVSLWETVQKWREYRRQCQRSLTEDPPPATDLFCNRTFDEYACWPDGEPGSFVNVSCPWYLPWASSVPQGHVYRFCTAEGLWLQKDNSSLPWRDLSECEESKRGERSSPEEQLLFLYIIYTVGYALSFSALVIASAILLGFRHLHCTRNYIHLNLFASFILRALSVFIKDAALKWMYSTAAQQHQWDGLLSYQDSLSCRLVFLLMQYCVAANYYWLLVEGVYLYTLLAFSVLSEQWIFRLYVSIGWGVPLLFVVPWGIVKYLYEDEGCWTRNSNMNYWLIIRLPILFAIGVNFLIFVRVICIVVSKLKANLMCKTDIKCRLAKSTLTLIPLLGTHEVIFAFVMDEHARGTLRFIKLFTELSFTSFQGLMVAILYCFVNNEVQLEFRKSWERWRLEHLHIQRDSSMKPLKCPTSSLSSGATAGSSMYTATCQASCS

`CC[C@H](C)[C@H](NC(=O)[C@H](Cc1ccccc1)NC(=O)[C@H](CCC(=O)O)NC(=O)[C@H](CCCNC(=N)N)NC(=O)[C@H](C)NC(=O)[C@H](C)NC(=O)[C@H](CCC(N)=O)NC(=O)[C@H](CCCCNC(=O)[C@@H](N)CCCCNC(=O)[C@@H](N)CCCCNC(=O)CC[C@H](NC(=O)CCCCCCCCCCCCCCCCC(=O)O)C(=O)O)NC(=O)[C@H](CCC(=O)O)NC(=O)[C@H](CC(C)C)NC(=O)[C@H](Cc1ccc(O)cc1)NC(=O)[C@@H](NC(=O)[C@H](CO)NC(=O)[C@H](Cc1ccc(O)cc1)NC(=O)[C@H](CC(=O)O)NC(=O)[C@H](CO)NC(=O)[C@@H](NC(=O)[C@H](Cc1ccccc1)NC(=O)[C@@H](NC(=O)CNC(=O)[C@H](CCC(=O)O)NC(=O)C(C)(C)NC(=O)[C@@H](N)Cc1ccc(O)cc1)[C@@H](C)O)[C@@H](C)O)[C@@H](C)CC)C(=O)N[C@@H](CCC(=O)O)C(=O)N[C@@H](Cc1c[nH]c2ccccc12)C(=O)N[C@@H](CC(C)C)C(=O)N[C@@H](CC(C)C)C(=O)N[C@@H](C)C(=O)NCC(=O)NCC(=O)N1CCC[C@H]1C(=O)N[C@@H](CO)C(=O)N[C@@H](CO)C(=O)NCC(=O)N[C@@H](C)C(=O)N1CCC[C@H]1C(=O)N1CCC[C@H]1C(=O)N1CCC[C@H]1C(=O)N[C@@H](CO)C(=O)O` [Compound 9] (H-Y[Aib]EGTFTSDYSIYLEK([εLys-εLys-γGlu-C18 diacid])QAAREFIEWLLAGGPSSGAPPPS-OH): in data set [1], the AUC/Dose was determined as 12.1 kg·h/L and the Cmax/Dose is 0.24 kg/L.

In data set [1], `CC[C@H](C)[C@H](NC(=O)[C@H](Cc1ccccc1)NC(=O)[C@H](CCC(=O)O)NC(=O)[C@H](CCCNC(=N)N)NC(=O)[C@H](C)NC(=O)[C@H](C)NC(=O)[C@H](CCC(N)=O)NC(=O)[C@H](CCCCNC(=O)COCCOCCNC(=O)COCCOCCNC(=O)CC[C@H](NC(=O)CCCCCCCCCCCCCCCCC(=O)O)C(=O)O)NC(=O)[C@H](CCC(=O)O)NC(=O)[C@H](CC(C)C)NC(=O)[C@H](Cc1ccc(O)cc1)NC(=O)[C@@H](NC(=O)[C@H](CO)NC(=O)[C@H](Cc1ccc(O)cc1)NC(=O)[C@H](CC(=O)O)NC(=O)[C@H](CO)NC(=O)[C@@H](NC(=O)[C@H](Cc1ccccc1)NC(=O)[C@@H](NC(=O)CNC(=O)[C@H](CCC(=O)O)NC(=O)C(C)(C)NC(=O)[C@@H](N)Cc1ccc(O)cc1)[C@@H](C)O)[C@@H](C)O)[C@@H](C)CC)C(=O)N[C@@H](CCC(=O)O)C(=O)N[C@@H](Cc1c[nH]c2ccccc12)C(=O)N[C@@H](CC(C)C)C(=O)N[C@@H](CC(C)C)C(=O)N[C@@H](C)C(=O)NCC(=O)NCC(=O)N1CCC[C@H]1C(=O)N[C@@H](CO)C(=O)N[C@@H](CO)C(=O)NCC(=O)N[C@@H](C)C(=O)N1CCC[C@H]1C(=O)N1CCC[C@H]1C(=O)N1CCC[C@H]1C(=O)N[C@@H](CO)C(=O)O` [Compound 10] (H-Y[Aib]EGTFTSDYSIYLEK([AEEA-AEEA-γGlu-C18 diacid])QAAREFIEWLLAGGPSSGAPPPS-OH) displayed an AUC/Dose of 8.4 kg·h/L and a Cmax/Dose of 0.20 kg/L.

In data set [1], `CC[C@H](C)[C@H](NC(=O)[C@H](Cc1ccccc1)NC(=O)[C@H](CCC(=O)O)NC(=O)[C@H](CCCNC(=N)N)NC(=O)[C@H](C)NC(=O)[C@H](C)NC(=O)[C@H](CCC(N)=O)NC(=O)[C@H](CCCCNC(=O)[C@@H](N)CCCCNC(=O)[C@@H](N)CCCCNC(=O)CC[C@H](NC(=O)CCCCCCCCCCCCCCCCC(=O)O)C(=O)O)NC(=O)[C@H](CCC(=O)O)NC(=O)[C@H](CC(C)C)NC(=O)[C@H](Cc1ccc(O)cc1)NC(=O)[C@@H](NC(=O)[C@H](CO)NC(=O)[C@H](Cc1ccc(O)cc1)NC(=O)[C@H](CC(=O)O)NC(=O)[C@H](CO)NC(=O)[C@@H](NC(=O)[C@H](Cc1ccccc1)NC(=O)[C@@H](NC(=O)CNC(=O)[C@H](CCC(=O)O)NC(=O)C(C)(C)NC(=O)[C@@H](N)Cc1ccc(O)cc1)[C@@H](C)O)[C@@H](C)O)[C@@H](C)CC)C(=O)N[C@@H](CC(N)=O)C(=O)N[C@@H](Cc1c[nH]c2ccccc12)C(=O)N[C@@H](CC(C)C)C(=O)N[C@@H](CC(C)C)C(=O)N[C@@H](C)C(=O)NCC(=O)NCC(=O)N1CCC[C@H]1C(=O)N[C@@H](CO)C(=O)N[C@@H](CO)C(=O)NCC(=O)N[C@@H](C)C(=O)N1CCC[C@H]1C(=O)N1CCC[C@H]1C(=O)N1CCC[C@H]1C(=O)N[C@@H](CO)C(=O)O` [Compound 11] (H-Y[Aib]EGTFTSDYSIYLEK([εLys-εLys-γGlu-C18 diacid])QAAREFINWLLAGGPSSGAPPPS-OH) came in with an AUC/Dose of 7.1 kg·h/L and a Cmax/Dose of 0.19 kg/L.

As to `CC[C@H](C)[C@H](NC(=O)[C@H](Cc1ccccc1)NC(=O)[C@H](CCC(=O)O)NC(=O)[C@H](CCCNC(=N)N)NC(=O)[C@H](C)NC(=O)[C@H](C)NC(=O)[C@H](CCC(N)=O)NC(=O)[C@H](CCC(=O)O)NC(=O)[C@H](CCC(=O)O)NC(=O)[C@H](CC(C)C)NC(=O)[C@H](CC(C)C)NC(=O)[C@@H](NC(=O)[C@H](CO)NC(=O)[C@H](Cc1ccc(O)cc1)NC(=O)[C@H](CC(=O)O)NC(=O)[C@H](CO)NC(=O)[C@@H](NC(=O)[C@H](Cc1ccccc1)NC(=O)[C@@H](NC(=O)CNC(=O)[C@H](CCC(=O)O)NC(=O)C(C)(C)NC(=O)[C@@H](N)Cc1ccc(O)cc1)[C@@H](C)O)[C@@H](C)O)[C@@H](C)CC)C(=O)N[C@@H](CCC(=O)O)C(=O)N[C@@H](Cc1c[nH]c2ccccc12)C(=O)N[C@@H](CC(C)C)C(=O)N[C@@H](CC(C)C)C(=O)N[C@@H](C)C(=O)NCC(=O)NCC(=O)N1CCC[C@H]1C(=O)N[C@@H](CO)C(=O)N[C@@H](CCCCNC(=O)COCCOCCNC(=O)COCCOCCNC(=O)CC[C@H](NC(=O)CCCCCCCCCCCCCCC(=O)O)C(=O)O)C(=O)NCC(=O)N[C@@H](C)C(=O)N1CCC[C@H]1C(=O)N1CCC[C@H]1C(=O)N1CCC[C@H]1C(=O)N[C@@H](CO)C(=O)O` [Compound 47] (H-Y[Aib]EGTFTSDYSILLEEQAAREFIEWLLAGGPSK([AEEA-AEEA-γGlu-C16 diacid])GAPPPS-OH), the EC50 – broadly, the midpoint of the concentration-response curve – in data set [2] (0% HSA, read-out: hGIPR, CRE Luc 0% HSA EC50) was 0.0031 nM; in data set [2] (hGIPR, CRE Luc 1% HSA EC50, 1% HSA) it was 0.156 nM; in data set [3] (0% HSA, read-out: hGLP-1R, CRE Luc 0% HSA EC50) it was 0.0021 nM; in data set [3] (hGLP-1R, CRE Luc 1% HSA EC50, 1% HSA) it was 0.154 nM.
